The values that follow come from patent US12264173B2 (GILEAD SCIENCES, INC., priority 2020, dated 2025).

Read-outs that look alike come from different tables or passages of the source.

What all share (type): cell-based
For one assay, the system named is HRV16. Nature of the assay: HRV16 HeLa EC50 (cytopathic effect in H1-HeLa cells). An outline of the steps: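 Read-out is luminescent cell viability (CellTiter-Glo) after 96 h of infection at 33 °C, scaled between uninfected and infected-untreated wells. Before infection with titrated virus, compounds went onto H1-HeLa cells as triplicate 3-fold dilution series.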
A general note: Damage to the host cells serves as the signal in cytopathic effect assays.

Assay [1] concerns Dengue serotype 2 New Guinea C (NGC) strain. The assay is described as follows: DENV-2 Huh-7 EC50 (qPCR in Huh7 cells). The note with it: Dengue virus. In general terms: Real-time PCR tracks product formation cycle by cycle.
Another assay has as its system HCV Rep 1B. Nature of the assay: HCV Rep 1B EC50 (replicon luciferase). Particulars: Hepatitis C virus. An outline of the steps:
(§1)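 HCV replicon cells (2000/well) exposed 3 days at 37 °C to ten-point 1:3 compound dilutions in quadruplicate, 0.44% final DMSO. Same wells multiplexed: cytotoxicity first by calcein AM (400 nM, 30 min, fluorescence 490/520 nm), then antireplicon EC50 by Dual-Glo luciferase luminescence.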
In general terms: Replicon systems follow genome replication, usually without infectious particles.

In another assay the test system is HCV Rep 2A. The assay is described as follows: HCV Rep 2A EC50 (replicon luciferase). The note with it: Hepatitis C virus. In short, it runs like this:
as §1

Assay [2] has as its system hMPV strain CAN99-81 (gr. A1). The assay is described as follows: hMPV A1 EC50 in LLC-MK2 cells. The note with it: read-out: hMPVA1 LLC-MK2 EC50. The procedure: (§2) LLC-MK2 cells were seeded in 24-well plates at 90% confluence in MEM+10% FBS. Plates were washed with PBS and 500 μL of hMPV (strains CAN99-81 (gr. A1), CAN97-83 (gr. A2), CAN97-82 (B1) or CAN98-75 (gr. B2), containing 40 PFU/mL with the different dilutions of the 4 compounds were added on the cells for 1 h 30 min at 37° C., 5% CO2. After the adsorption period, the medium was removed and cells were washed with PBS. An overlay of Opti-MEM 2×+methycellulose 1.6% (1:1) containing the same concentrations of compounds as in the adsorption period was added to the wells. A positive control consisting of ribavirin was also tested with concentrations ranging from 1 μM to 100 μM. The plates were incubated at 37° C., 5% CO2 for 3-5 days. After the incubation period, the cells were fixed with 7% formalin for 1 h at room temperature. hMPV titers were determined using a Mab specific for the F protein (clone hMPV24, ABD Serotec, Inc.) diluted 1/10 000 and a second anti-mouse IgG HRP antibody (GeneScriptCorp) diluted 1/2500. Finally, KPL True Blue was used to reveal infected cells.

The test system of assay [3] is hMPV strain CAN98-75 (gr. B2). The assay is described as follows: hMPV B2 EC50 in LLC-MK2 cells. Particulars: read-out: hMPVB2 LLC-MK2 EC50. The procedure:
as §2

The subject of assay [4] is hMPV strain CAN97-83 (gr. A2). The assay is described as follows: hMPV A2 EC50 in LLC-MK2 cells. Particulars: read-out: hMPVA2 LLC-MK2 EC50. Here is the method:
as §2

The test system of assay [5] is hMPV strain CAN97-82 (B1). The assay is described as follows: hMPV B1 EC50 in LLC-MK2 cells. The note with it: read-out: hMPVB1 LLC-MK2 EC50. Here is the method:
as §2

Setting [6] is: 96 h, Table 3, H1-HeLa cells, 96 h, read-out: HRV16 HeLa EC50.
[7] abbreviates: DENV2, Huh-7, Table 3, Huh7 cells, 48 hours, read-out: DENV-2 Huh7 EC50.
The mark [8] stands for this setting: 72 h, Table 4, replicon cells, 3 days, read-out: HCV Rep 1B EC50.
The mark [9] stands for this setting: 72 h, Table 4, replicon cells, 3 days, read-out: HCV Rep 2A EC50.

What is called EC50 is the midpoint of the concentration-response curve. As to `COC(=O)[C@H](C)N[P@](=O)(OC[C@@]1(C#N)O[C@@H](c2ccc3c(N)ncnn23)[C@H](OC(=O)C(C)C)[C@@H]1OC(=O)C(C)C)Oc1ccccc1` (single isomer, unassigned) [Example 140], the EC50 with HRV16 (setting [6]) worked out at 83 nM; with HRV16 (HeLa, read-out: HRV16 HeLa EC50, Table 5 comparative activity, 2',3'-OH vs -OC(O)iPr) it was 83 nM; in assay [1] (setting [7]), 1220 nM; in assay [1] (Huh-7, read-out: DENV Huh7 EC50), 1210 nM; with HCV Rep 1B (setting [8]), 369 nM; in the assay with HCV Rep 1B (read-out: HCV Rep1B EC50) it was 368 nM. Moreover, the EC50 in the assay on HCV Rep 2A (setting [9]) is 542 nM; in the assay on HCV Rep 2A (read-out: HCV Rep2A EC50), 542 nM; in assay [2], 160 nM; in assay [3] it was 230 nM; in assay [4] it was 190 nM; in assay [5] it was 210 nM.
Take `CCC(=O)O[C@H]1[C@H](c2ccc3c(N)ncnn23)O[C@](C#N)(CO[P@@](=O)(N[C@@H](C)C(=O)OC2CCCCC2)Oc2ccccc2)[C@H]1OC(=O)CC` [Example 82, (2R,3S,4S,5S)-5-(4-aminopyrrolo[2,1-f][1,2,4]triazin-7-yl)-2-cyano-2-((((S)-(((S)-1-(cyclohexyloxy)-1-oxopropan-2-yl)amino)(phenoxy)phosphoryl)oxy)methyl) tetrahydrofuran-3,4-diyl dipropionate]: the EC50 in the assay with HRV16 (setting [6]) amounted to 201 nM; in assay [1] (setting [7]) it was 3980 nM; with HCV Rep 1B (setting [8]), 359 nM; in the assay on HCV Rep 2A (setting [9]), 813 nM.
The like results for `CCC(=O)O[C@H]1[C@H](c2ccc3c(N)ncnn23)O[C@](C#N)(CO[P@@](=O)(N[C@@H](C)C(=O)OC(C)C)Oc2ccccc2)[C@H]1OC(=O)CC` [Example 90, (2R,3S,4S,5S)-5-(4-Aminopyrrolo[2,1-f][1,2,4]triazin-7-yl)-2-cyano-2-((((S)-(((S)-1-isopropoxy-1-oxopropan-2-yl)amino)(phenoxy)phosphoryl)oxy)methyl) tetrahydrofuran-3,4-diyl dipropionate] were, in that order, 259 nM, 2160 nM, 579 nM and 1140 nM.
